This is an account of results in US20130053435A1, “Methods of Treating Alcohol Intoxication, Alcohol Use Disorders and Alcohol Abuse Which Comprises the Administration of Dihydromyricetin” (priority 2011, published 2013).

Where “and” joins values, the source holds several entries; their conditions need not be identical. Identical values can stand only once. Like-named read-outs stand apart in the source and are kept apart here.

Series [1] has as its system EtOH-induced LORR in rats. The method, then: See Kakihana R, et al. (1966) Science 154(756):1574-1575). Briefly, after drug injection, rats were placed in the supine position in a V-shaped support. LORR onset time was taken from the endpoint of drug injection (i.p.). LORR duration ended when the animal was able to flip over three times in 30 s. LORR assays were blindly performed. LORR durations were reported as mean (min)±SEM.
Further LORR assays were conducted as follows.
Additional pre-treatment and post-treatment experiments were also conducted.
See Hunkeler, W., et al. (1981) Nature 290:514-516.

Series [2] can be described thus: Metabolic studies in rats. In kind it is in vivo, rat. The note with it: DHM oral administration, 1 mg/kg.
Series [3] deals with T1, GABAARs.
T1 construct: other: in the presence of 60 mM EtOH, rat hippocampal; shift of the GABA concentration-response curve
As to the kind of experiment: Whole-cell patch-clamp, cultured hippocampal neurons, acute drug application. It is filed as cell-based, rat. Conditions: DHM 0.3 and 1 μM co-applied with GABA (b110 prints 1 M). On the procedure:
(§1) Hippocampal neurons from embryonic day 18 rats were prepared by papain dissociation (Worthington Biochemical, Lakewood, N.J.) and cultured in neurobasal medium and B27 supplement (Invitrogen). Cultures were kept at 37° C. in a 5% CO2 humidified incubator as described previously. See Shen, Y., et al. (2011) Mol Pharmacol 79:432-442.
(§2) Hippocampal neurons from embryonic day 18 SD rats were prepared by papain dissociation (Worthington Biochemical, Lakewood, N.J.) and cultured in neurobasal medium (Invitrogen) and B27 supplement as previously reported. See Stowell J N and Craig A M (1999) Neuron 22(3):525-536. Briefly, embryos were removed from maternal rats anesthetized with isoflurane and euthanized by decapitation. Hippocampus were dissected and placed in Ca^2+- and Mg^2+-free HEPES-buffered Hank's buffered salt solution (pH 7.45). Tissues were dissociated by papain digestion followed by trituration through a Pasteur pipette and papain inhibitor treatment. Cells were pelleted and resuspended in neurobasal medium containing 2% B27 serum-free supplement, 100 U/ml penicillin, 100 μg/ml streptomycin, 0.5 mM glutamine (all from Invitrogen), and 10 μM glutamate (Sigma).
(§3) Dissociated neurons were then plated at a density of 0.3×10^5 cells/cm^2 onto 12 mm round coverslips in 24-well plates (for patch-clamp recording) and/or at a density of 0.5×10^5 cells/cm^2 in 6-well plates (for Western blot and biotinylation assays) coated with poly-D-lysine (Sigma, 50 μg/ml). Cultures were kept at 37° C. in a 5% CO2 humidified incubator. Thereafter, one third to half of the medium was replaced twice a week with neurobasal culture medium containing 2% B27 supplement, and 0.5 mM glutamine.
(§4) Control neurons were treated with corresponding vehicle as same procedure as EtOH-treated neurons. The concentration of 60 mM EtOH was selected in view of prior experiments. See Liang J et al (2007). Specifically, the concentration of 60 mM EtOH used to treat cultured neurons was chosen to match blood levels measured in adult rats after intoxication with gavage of 5 g/kg, which produced about 60 mM blood peak plasma [EtOH] lasting for about 2 to 3 hr and induced significant plasticity in GABAARs and tolerance.
(§5) Then, immediately before electrophysiological recording, cells grown on coverslips were transferred to a perfusion chamber (Warner Instruments) and visualized with an inverted microscope (TE200, Nikon). Whole-cell patch-clamp recordings were obtained from cultured neurons under voltage-clamp mode at room temperature (22-25° C.), at a holding potential of −70 mV. Cells were perfused with an extracellular solution (137 mM NaCl, 5 mM KCl, 2 mM CaCl2, 1 mM MgCl2, 20 mM glucose and 10 mM HEPES (310-320 Osm, pH adjusted to 7.40 with NaOH)). Glass pipettes were filled with the same internal solution as that in slice recordings, with an input resistance of 4-7 MΩ. GABAAR-mediated mIPSCs were recorded using the same pharmacological method as mentioned above. […] Electrical signals were amplified using a Multiclamp 200 B amplifier (Molecular Devices, USA). After establishing the whole-cell configuration, at least 10 min were allowed to elapse before the application of drug to allow the membrane patch to stabilize and exchange of ions between the recording electrode and the cytosol to occur. Data were acquired with pClamp software (Version 10.0, Molecular Devices, USA), digitized at 20 kHz (Digidata 1440A, Molecular Devices), and analyzed using the Clampfit software (Version 10.0, Molecular Devices) and the Mini Analysis Program (versions 6.0.7, Synaptosoft, Decatur, Ga.) using methods known in the art. See Hamann M, et al. (2002) Neuron 33(4):625-633; Stell B M and Mody I (2002) J Neurosci 22(10): RC223; and Liang (2007).
For orientation: The patch-clamp technique gives a direct electrical read-out from membranes.

Series [4] has as its system T2, GABAARs.
T2 construct: DHM-enhanced Itonic; EC50 on GABAAR-mediated Itonic; other: control (vehicle) cultured neurons, DIV14; other: cultured neurons with EtOH exposure/withdrawal (60 mM, 30 min, 24 hr); EtOH-potentiated Itonic; GABAAR-mediated Ito
The series is described as above. In kind it is cell-based, rat. On the procedure: as §1, §2, §3, §4, §5

For series [5], the system named is T3, GABAARs.
T3 construct: DHM-enhanced mIPSCs; other: control (vehicle) cultured neurons, DIV14; other: cultured neurons with EtOH exposure/withdrawal (60 mM, 30 min, 24 hr); EtOH-potentiated mIPSCs; effect on post-synaptic currents (mIPSCs); other: comparative experiments, rat hippocampal slices
Described as above. It is filed as cell-based, rat. The method, then:
as §1, §2, §3, §4, §5

The mark [6] stands for this setting: DHM 1 mg/kg i.p. 30 min after EtOH i.p.
The mark [7] stands for this setting: DHM 1 mg/kg i.p. 30 min prior to EtOH 3 g/kg i.p.

As usually defined, the EC50 is the concentration giving half of the maximal effect. On to `O=C1c2c(O)cc(O)cc2O[C@H](c2cc(O)c(O)c(O)c2)[C@H]1O` [DHM, (2R,3R)-3,5,7-trihydroxy-2-(3,4,5-trihydroxyphenyl)-2,3-dihydrochromen-4-one], for which the “LORR duration remaining from DHM injection” value in series [1] (setting [6]) was 21 ± 2 min and 19 ± 1.0 min. Further, in series [1] (setting [6]), the “remaining LORR, % of control (E+saline)” value was 41.2±3.8% and 42%. Moreover, the “LORR duration (total)” value in series [1] (DHM 1 mg/kg i.p. 30 min after EtOH i.p. (b63 prints 3 mg/kg)) was 49 ± 2 min. Further, the LORR duration in series [1] (setting [7]) was 8 ± 4 min and 8.2 ± 4.1 min; in series [1] (co-injection DHM 3 mg/kg and EtOH 3 g/kg i.p.), 2.7 ± 1.7 min. Moreover, the results for the “LORR duration, % of control” value in series [1] (setting [7]) and in series [1] (co-administration DHM 1 mg/kg i.p. with EtOH i.p.) were 10.6±5.9 % of control and 1.2±0.6 % of control, respectively. Further, the “EtOH-induced LORR duration in female rats” value in series [1] (female rats, combined treatment DHM 1 mg/kg i.p. with EtOH 3 g/kg i.p.) is reported as “reduction”. In addition, the “metabolic change (food and water intake, urine volume and stool volume)” value in series [2] is “no metabolic change”. Besides, the “shift of the GABA concentration-response curve” value with GABAARs [3] is reported as “left shift”. The Itonic in the series with GABAARs [4] (0.3 μM DHM, cultured hippocampal neurons) was 21.0±2.3 pA; in the series with GABAARs [4] (1 μM DHM, cultured hippocampal neurons DIV13-14), 194.9±13.6 % of control. Further, the EC50 with GABAARs [4] (control (vehicle) cultured neurons, DIV14, read-out: EC50 on GABAAR-mediated Itonic) was ~200 nM; in the series on GABAARs [4] (cultured neurons with EtOH exposure/withdrawal (60 mM, 30 min, 24 hr), read-out: EC50 on Itonic), ~200 nM and ~300 nM; in the series on GABAARs [5] (control (vehicle) cultured neurons, DIV14, read-out: EC50 on mIPSCs), ~200 nM and ~300 nM. For the same molecule, the “mIPSCs (area)” value with GABAARs [5] (1 μM DHM, cultured hippocampal neurons) was 181.8±9.2 % of control and 128.2±8.3 % of control.
